# Data reported in article PMC11085308, “Design, Synthesis and Biological Activity of Novel Methoxy- and Hydroxy-Substituted N-Benzimidazole-Derived Carboxamides” (Molecules, 2024).
# Entries after “also recorded” stand apart in the source; their conditions may differ.
# Legend:
# S. aureus ATCC 29213 = test: Antibacterial activity in vitro, broth microdilution MIC; assay type: cell-based, Staphylococcus aureus; conditions: for MIC S. aureus ATCC 29213: broth microdilution, 16–24 h at 37 °C, unit inferred
# Procedure: (§1) The in vitro antibacterial activity of the synthesized benzamides 7–12 and 31–37 was evaluated against a panel of eight different bacterial strains. The Gram-positive bacterial strains comprised S. aureus, S. pneumoniae and E. faecalis, and the panel of Gram-negative bacteria consisted of E. coli, K. pneumoniae, A. baumannii and P. aeruginosa.
# (§2) The selected bacterial strains were Gram-negative Escherichia coli (ATCC 25922) and Gram-positive Staphylococcus aureus (ATCC 29213) and S. Pneumoniae (ATCC 49619). The Saccharomyces cerevisiae ATCC 7752 strain was tested as a eukaryotic model organism. Synthesized compounds were prepared as 10 mM DMSO solutions and tested in a final concentration range of 100–0.2 µM [39].
# (§3) Broth microdilution testing was performed according to CLSI (Clinical Laboratory Standards Institute) guidelines. The MIC (minimal inhibitory concentration) value was defined as the last tested concentration of a compound at which there is no visible growth of bacteria. Inoculums for each microorganism were prepared using the direct colony suspension method, where broth solutions that achieved turbidity equivalent to 0.5 McFarland standards were additionally diluted 100× with cation-adjusted MH media (Becton Dickinson). All test plates were incubated for 16–24 h at 37 °C.
# [1] = test system: HEK 293 (human embryonic kidney); test: Antiproliferative activity in vitro, MTT assay, 72 h, non-cancerous cell line; assay type: cell-based; conditions: HEK293, 72 h incubation, '-' with footnote a = did not show biological activity due to precipitation
# Procedure: (§4) The experiments were carried out on four human cell lines which are derived from three cancer types: H460 (lung carcinoma), HCT 116 (colorectal carcinoma), MCF-7 (human breast cancer) and the non-cancerous cell line HEK 293 (human embryonic kidney).
# (§5) The results are compared with the known antiproliferative agents doxorubicin and etoposide. […] Therefore, it is not clear whether the observed antiproliferative activity is due to the biological activity of the compounds or to precipitation.
# (§6) The experiments were performed on four human cell lines, including HCT 116 (colon carcinoma), H 460 (lung carcinoma), MCF-7 (breast carcinoma) and HEK 293 (human embryonic kidney cells), in line with previously published experimental procedures. Briefly, the cells were grown in DMEM medium with the addition of 10% fetal bovine serum (FBS), 2 mM of L-glutamine, 100 U/mL of penicillin and 100 µg/mL of streptomycin and cultured as monolayers at 37 °C in a humidified atmosphere with 5% CO2. Cells were seeded at 2 × 10^3 cells/well in standard 96-well microtiter plates and left to attach for 24 h. The next day, a test compound was added in five serial 10-fold dilutions. The rate of cell growth was evaluated after 72 h of incubation with MTT assays. […] Each test was performed in quadruplicate in at least two individual experiments.
# [2] = DPPH free radical scavenging assay; conditions: compared to the standard BHT
# Description: (§7) The synthesized benzazole acrylonitrile derivatives were screened for their antioxidative potency by using in vitro assays, namely DPPH and ABTS as free radical scavenging assays and FRAP as a ferric reducing/antioxidant power assay.
# The well-known antioxidant butylated hydroxytoluene (BHT) was used as a standard for comparing activity during testing. The DPPH assay is a standard commonly used test for the in vitro assessment of the antioxidant capacity of novel compounds by using their ability to scavenge the stable radical 1,1-diphenyl-picrylhydrazyl. […] Another test used to evaluate the antioxidative capacity of novel compounds was the ABTS test, by which their activity was evaluated by scavenging the stable radical 3-ethylbenzthiazoline-6-sulphonic acid.
# Determination of the reducing activity of the stable radical 1,1-diphenyl-picrylhydrazyl (DPPH):
# The reducing activity of the investigated systems was measured by the DPPH method according to previously described procedures with modifications to ensure their use on a 96-well microplate. Briefly, equal volumes of various concentrations of the tested molecules (dissolved in DMSO) were added to a solution of DPPH (final concentration of 50 µM in absolute ethanol). Ethanol and DMSO were used as control solutions in line with earlier reports. The radical scavenging activity was calculated using the following formula:[(A517 control − A517 compound)/A517 control] × 100.
# The IC50 values were calculated from dose–response curves using nonlinear regression analysis with the GraphPad Prism 8 Ink. program. All measurements were carried out in triplicate.
# E. coli efflux del. = test: microbe, parasite or virus in culture; assay type: cell-based, Escherichia coli; conditions: broth microdilution, 16–24 h at 37 °C; unit inferred
# Procedure: as §1, §2, §3
# E. coli ATCC 25922 = test: Antibacterial activity in vitro, broth microdilution MIC; assay type: cell-based, Escherichia coli; conditions: 16–24 h at 37 °C, unit inferred
# Procedure: as §1, §2, §3
# H460 (lung carcinoma) = test: Antiproliferative activity in vitro, MTT assay, 72 h; assay type: cell-based; conditions: Homo sapiens, NCI-H460, 72 h incubation
# Procedure: as §4, §5, §6
# [3] = test system: MCF-7 (human breast cancer); test: as above; assay type: cell-based; conditions: MCF7, 72 h incubation
# Procedure: as §4, §5, §6
# [4] = test system: HCT 116 (colorectal carcinoma); test: as above; assay type: cell-based; conditions: Homo sapiens, 72 h incubation, '-' with footnote a = did not show biological activity due to precipitation
# Procedure: as §4, §5, §6
# [5] = Ferric reducing/antioxidant power (FRAP assay); parameters: FRAP: unit not given here; conditions: for FRAP: Fe2+ equivalents, triplicate; for FRAP ferric reducing/antioxidant power, in words: compared to the standard BHT
# Procedure: as §7
# The antioxidant activity of a substance is directly related to its reducing power.
# The FRAP method was carried out according to previously described procedures with some modifications to make it compatible with an assay on a 96-well microplate. All results were expressed as Fe^2+ equivalents (Fe^2+ µmol). Ferrous sulphate (FeSO4 × 7H2O) was used to develop a standard curve of 20–2000 µmol/l for the FRAP test.
# E. faecalis ATCC 29212 = test: Antibacterial activity in vitro, broth microdilution MIC; assay type: cell-based; conditions: for Selectivity of antibacterial activity, in words: against the Gram-positive strain E. faecalis; for MIC E. faecalis ATCC 29212: broth microdilution, 16–24 h at 37 °C, unit inferred
# Procedure: as §1, §2, §3
# P. aeruginosa ATCC 27853 = test: as above; assay type: cell-based; conditions: 16–24 h at 37 °C, unit inferred
# Procedure: as §1, §2, §3
# A. baumannii ATCC 17978 = test: as above; assay type: cell-based; conditions: 16–24 h at 37 °C, unit inferred
# Procedure: as §1, §2, §3
SMILES,MIC S. aureus ATCC 29213 (S. aureus ATCC 29213),IC50 [1],"DPPH free radical scavenging activity, in words [2]",MIC E. coli efflux del. (E. coli efflux del.),melting point,MIC E. coli ATCC 25922 (E. coli ATCC 25922),IC50 (H460 (lung carcinoma)),IC50 [3],IC50 [4],FRAP [5],"FRAP ferric reducing/antioxidant power, in words [5]","Selectivity of antibacterial activity, in words (E. faecalis ATCC 29212)",MIC E. faecalis ATCC 29212 (E. faecalis ATCC 29212),MIC P. aeruginosa ATCC 27853 (P. aeruginosa ATCC 27853),MIC A. baumannii ATCC 17978 (A. baumannii ATCC 17978),"MIC (E. faecalis ATCC 29212; Enterococcus faecalis, ATCC29212, read-out: MIC E. faecalis)","MIC (S. aureus ATCC 29213; Staphylococcus aureus, ATCC29213, read-out: MIC S. aureus)"
"O=C(Nc1nc2ccccc2n1-c1ccccc1)c1cc(O)c(O)c(O)c1 [Compound 34, 3,4,5-Trihydroxy-N-(1-phenyl-1H-benzo[d]imidazol-2-yl)benzamide]",> 64 µM,85.1 ± 8.8 µM,significantly improved; also recorded: exceptional activity,> 64 µM,278 to 281 °C,> 64 µM,> 100 µM,49.4 ± 27.3 µM,> 100 µM,6.83 ± 1.26,very low,selective antibacterial activity,32 µM,> 64 µM,> 64 µM,–,–
"O=C(O)c1cn(C2CC2)c2cc(N3CCNCC3)c(F)cc2c1=O [Ciprofloxacin, ciprofloxacin, reference compound]",0.25 µM,–,–,–,–,–,–,–,–,–,–,–,4 µM,–,–,–,–
"CC(C)(O/N=C(\C(=O)N[C@@H]1C(=O)N2C(C(=O)[O-])=C(C[n+]3ccccc3)CS[C@H]12)c1csc(N)n1)C(=O)O [Ceftazidime, ceftazidime, reference compound]",4 µM,–,–,–,–,–,–,–,–,–,–,–,> 64 µM,2 µM,4 µM,–,–
"COc1cccc2c1C(=O)c1c(O)c3c(c(O)c1C2=O)C[C@@](O)(C(=O)CO)C[C@@H]3O[C@H]1C[C@H](N)[C@H](O)[C@H](C)O1 [Doxorubicin, doxorubicin, reference compound]",–,0.02 ± 0.01 µM,–,–,–,–,0.04 ± 0.01 µM,0.009 ± 0.004 µM,0.04 ± 0.01 µM,–,–,–,–,–,–,–,–
"C[C@@H](O)[C@H]1C(=O)N2C(C(=O)O)=C(S[C@@H]3CN[C@H](C(=O)N(C)C)C3)[C@H](C)[C@H]12 [Meropenem, meropenem, reference compound]",< 0.125 µM,–,–,< 0.125 µM,–,< 0.125 µM,–,–,–,–,–,–,8 µM,1 µM,0.5 µM,–,–
"COc1c(O)cc(C(=O)Nc2nc3ccccc3[nH]2)cc1O [Compound 8, N-(1H-benzo[d]imidazol-2-yl)-3,5-dihydroxy-4-methoxybenzamide]",> 64 µM,49.4 ± 3.3 µM,significantly improved,> 64 µM,–,> 64 µM,91.8 ± 1 µM,52.9 ± 16 µM,> 100 µM,2461.93 ± 21.42,excellent in vitro antioxidant activity,selective antibacterial activity,8 µM,> 64 µM,> 64 µM,8 µM,–
"CN(C)[C@@H]1C(O)=C(C(N)=O)C(=O)[C@@]2(O)C(O)=C3C(=O)c4c(O)cccc4[C@@](C)(O)[C@H]3C[C@@H]12 [Tetracycline, tetracycline, reference compound]",–,–,–,32 µM,–,–,–,–,–,–,–,–,–,–,–,–,–
"COc1cc([C@@H]2c3cc4c(cc3[C@@H](O[C@@H]3O[C@@H]5CO[C@@H](C)O[C@H]5[C@H](O)[C@H]3O)[C@H]3COC(=O)[C@H]23)OCO4)cc(OC)c1O [Etoposide, etoposide, reference compound]",–,0.65 ± 0.02 µM,–,–,–,–,2.2 ± 0.4 µM,0.6 ± 0.1 µM,2.2 ± 0.4 µM,–,–,–,–,–,–,–,–
"CC1(C)S[C@@H]2[C@H](NC(=O)[C@H](N)c3ccccc3)C(=O)N2[C@H]1C(=O)O [Ampicillin, ampicillin, reference compound]",0.5 µM,–,–,–,–,–,–,–,–,–,–,–,1 µM,> 64 µM,32 µM,–,–
"CNC(C)C1CCC(N)C(OC2C(N)CC(N)C(OC3OCC(C)(O)C(NC)C3O)C2O)O1 (stereo not shown) [Gentamicin, gentamicin, reference compound]",0.25 µM,–,–,1 µM,–,0.5 µM,–,–,–,–,–,–,16 µM,2 µM,4 µM,–,–
"CC[C@H]1OC(=O)[C@H](C)[C@@H](O[C@H]2C[C@@](C)(OC)[C@@H](O)[C@H](C)O2)[C@H](C)[C@@H](O[C@@H]2O[C@H](C)C[C@H](N(C)C)[C@H]2O)[C@](C)(O)C[C@@H](C)CN(C)[C@H](C)[C@@H](O)[C@]1(C)O [Azithromycin, azithromycin, reference compound]",1 µM,–,–,0.5 µM,–,4 µM,–,–,–,–,–,–,8 µM,32 µM,8 µM,–,–
"NC[C@H]1O[C@H](O[C@H]2[C@H](O)[C@@H](O[C@H]3O[C@H](CO)[C@@H](O)[C@H](N)[C@H]3O)[C@H](N)C[C@@H]2N)[C@H](N)C[C@@H]1O [Tobramycin, reference compound]",0.25 µM,–,–,1 µM,–,1 µM,–,–,–,–,–,–,8 µM,0.5 µM,2 µM,–,–
"CC(C)Cn1c(NC(=O)c2cc(O)c(O)c(O)c2)nc2ccccc21 [Compound 33, 3,4,5-Trihydroxy-N-(1-isobutyl-1H-benzo[d]imidazol-2-yl)benzamide]",32 µM,77.1 ± 7.9 µM,significantly improved,64 µM,291 to 293 °C,> 64 µM,> 100 µM,90.8 ± 1.6 µM,43.2 ± 18.6 µM,4154.35 ± 1.26,excellent in vitro antioxidant activity,–,64 µM,> 64 µM,> 64 µM,–,32 µM
